In patent publication US8420638B2, “Triheterocyclic compounds and compositions thereof” (Gemin X Pharmaceuticals Canada Inc., priority 2003, dated 2013):
Structures can show the parent of a compound that is named as a salt.

Columns and labels:
[1] = tested on: human prostatic adenocarcinoma cancer PC3 cells; test: Growth of PC3 prostatic tumors in SCID mice; format: in vivo; conditions: 5 consecutive intravenous injections; 4.84 μMoles/Kg (Compound 1 Mesylate Salt), 4.84 or 14.51 μMoles/Kg (Compound 66); FIG. 6
Method: The human prostatic adenocarcinoma cancer PC3 cells were purchased from the American Type Culture Collection (ATCC). These cells were confirmed to be free of mycoplasma infection. Cells were maintained in the Roswell Park Memorial Institute (RPMI), supplemented with 10% inactivated fetal bovine serum and 1% penicillin-streptomycin-L-Glutamine, under 5% carbon dioxide (CO2) at 37° C. For prostatic-tumor induction, cells were grown lower than 70% confluence in complete medium and then collected with trypsin (Bio Whittaker, Rockland, Me., USA). Cells were then centrifuged and washed 2 times in phosphate buffer solution (PBS) and resuspended in PBS at 1.5×10^6 cells/0.1 mL. PC3 cells were then transplanted subcutaneously into the flank of SCID mice (Charles River Laboratories, Wilmington, Mass., USA), as a suspension of tumor cells (1.5×10^6 cells in 100 μL PBS), under a laminar airflow hood. Eleven (11) days later, the size of each tumor was measured. […] Relative tumor size and volume was calculated as follows: length (cm)×[width (cm)]^2/2. […]

[2] = Shelf stability (precipitation) of the formulated compound; format: physicochemical; conditions: 0.6 mg/mL in 9.6% polyethylene glycol 300, 0.4% polysorbate 20 and 5% dextrose
Method: Compound 1 Tartrate salt solubility is equal to 0.1 mg/mL. […] This increase in solubility has a positive impact on the shelf stability of formulated Compound 1.

[3] = Body weight and deaths of tumor-bearing SCID mice under treatment; format: in vivo, CB17 SCID/SCID mice; conditions: for change in body weight: 4.5 mg/kg IV once daily for five days, FIG. 2
Method: (§1) There were three treatment groups of ten mice each: (a) a negative control group, (b) a positive control group and (c) a group treated with Compound 1 Tartrate.
(§2) Treatments started on day fourteen after C33A cells transplantation. Compound 1 Tartrate was administered IV once daily for five consecutive days at a dose of 4.5 mg/kg. Compound 1 Tartrate was prepared fresh daily in a vehicle solution of 5% Dextrose (Abbot Laboratories, QC, Canada) and 2% polysorbate 20 (Sigma, St. Louis, Mo., USA). The negative control group was treated with vehicle alone. The injection volume for both Compound 1 Tartrate group and the negative control group was 150 μl.
(§3) Observation continued for 40 days after initial tumor implantation.

[4] = tested on: calf intestinal alkaline phosphatase; test: Conversion of phosphate pro-drug by calf intestinal alkaline phosphatase in vitro; format: in vitro ADME; conditions: 15 μM, 0.02 U/100 μL enzyme, pH 7.4, 30-120 minutes; FIG. 5
Method: (§4) The conversion into biologically active drug of phosphate pro-drugs by calf intestinal alkaline phosphatase and human placental alkaline phosphatase was measured in vitro using purified enzymes. Purified calf intestinal alkaline phosphatase (Roche Diagnostic Inc. Laval, Quebec, Canada) or human placental alkaline phosphatase (Sigma-Aldrich Canada Ltd. Oakville, Ontario, Canada) was added at a concentration of 0.02 U/100 μL to a solution containing 15 μM of Compound 66, 20 mM Tris-HCl, pH 7.4 and 0.9% NaCl. The solutions were incubated for 30, 60 or 120 minutes. A solution containing 15 μM of Compound 66, 20 mM Tris-HCl, pH 7.4 and 0.9% NaCl was used as a reference (time=0 minutes). To each solution, an equal volume (100 μL) of ice-cold acetonitrile was added, and then the mixture was vortexed and transferred to glass vials. A standard concentration curve of the pro-drug and the drug was prepared in 10 mM Tris-HCl, pH 7.4, 0.45% NaCl and 50% acetonitrile. All samples were immediately analyzed by LC/MS.

[5] = target: T1, human placental alkaline phosphatase (Homo sapiens, UniProt P05187); test: Conversion of phosphate pro-drug by human placental alkaline phosphatase in vitro; format: in vitro ADME; conditions: 15 μM, 0.02 U/100 μL enzyme, pH 7.4, 30-120 minutes; FIG. 4
T1 construct: purchased Sigma-Aldrich Canada Ltd
Method: as §4

[6] = Solubility (0.2 μM filtration, LC/MS); format: physicochemical
Method: To determine whether a compound is soluble in a solution, the solution was filtered on 0.2 μM polytetrafluoroethylene filters (Whatman Inc. Clifton, N.J., USA) and the compound concentration in the filtrate was measured by LC/MS and compared to the expected concentration.
The column used was XTerra MS C18: 50×2.1 mm, 3.5 mm column at 20° C. Samples were injected and separated under the following conditions: The mobile phase “A” consisted of 5 mM ammonium formate, 0.1% formic acid in water and mobile phase “B” consisted of 5 mM ammonium formate, 0.1% formic acid in methanol. […] The Mass Spectrometer system consisted of a Waters ZQ2000 single quadrupole mass spectrometer (Waters, Milford, Mass., USA) equipped with an Electrospray Ionization Source (ES). The mass detector was operated in positive ion mode (ES+) and Selected Ion Recording mode (SIR). Compounds were detected at m/z equal to their respective molecular weight plus 1.

[7] = tested on: cancer cell lines H1299 and C33A; normal cell lines HMEC and MRC-5; test: ATP levels in cancer versus normal cell lines (FIG. 1); format: cell-based; conditions: 72 hours after treatment with 0.5 μM
Method: One day after plating, the cells were treated with various concentrations of Compound 1 Tartrate. Stock solutions of the Compound 1 Tartrate were prepared in dimethyl sulfoxide (Sigma-Aldrich Inc., St. Louis, Mo., USA), diluted in the recommended media and then added to the cells. The total dimethyl sulfoxide on the cells was 1%. […] The results were plotted relative to untreated control cells, which were set at a value of 100.

[8] = tested on: C33A human cervical cancer cells; test: Growth of C33A cervical tumors in SCID mice; format: in vivo, CB17 SCID/SCID mice
Method: as §1, §2, §3

T1 sequence (P05187 23-506): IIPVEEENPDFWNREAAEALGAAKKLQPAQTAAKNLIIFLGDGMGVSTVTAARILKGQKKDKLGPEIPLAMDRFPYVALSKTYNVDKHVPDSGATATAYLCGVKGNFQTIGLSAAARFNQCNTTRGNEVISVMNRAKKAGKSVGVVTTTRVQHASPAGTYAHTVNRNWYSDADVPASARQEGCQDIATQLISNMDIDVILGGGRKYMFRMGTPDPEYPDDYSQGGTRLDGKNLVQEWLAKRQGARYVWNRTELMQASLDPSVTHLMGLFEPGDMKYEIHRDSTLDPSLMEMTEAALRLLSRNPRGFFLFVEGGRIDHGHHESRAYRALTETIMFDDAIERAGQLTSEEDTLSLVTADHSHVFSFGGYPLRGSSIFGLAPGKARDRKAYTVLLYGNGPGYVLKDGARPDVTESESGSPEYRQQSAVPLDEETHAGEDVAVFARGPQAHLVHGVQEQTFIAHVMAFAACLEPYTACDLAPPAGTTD

With COC1=CC(c2cc3ccccc3[nH]2)=N/C1=C\c1[nH]c(C)cc1C [Compound 1 Mesylate Salt] the “growth of prostatic tumors” value [1] was “significantly reduce the growth of prostatic tumors in mice” and the “precipitation of the formulation” value [2] was “shows no evidence of precipitation 72 hours after its preparation”.
For N.N.[Cl][Pt][Cl] [cisplatin], the “deaths in the group” value ([3]; days 29 and 32, 4 mg/kg IP, group of ten mice) was “Two mice died”, the “body weight lost by the mouse that died” value ([3]; mouse that died on day 29, 4 mg/kg IP) was 2.2 g and the “body weight lost by the mouse that died” value ([3]; mouse that died on day 32, 4 mg/kg IP) was 7 g.
For COC1=CC(c2cc3ccccc3n2C(=O)CC(C)(C)c2c(C)cccc2OP(=O)(O)O)=N/C1=C/c1[nH]c(C)cc1C [Compound 66], the “growth of prostatic tumors” value [1] was “significantly reduce the growth of prostatic tumors in mice”, the “conversion of pro-drug into Compound 1” value [4] was “convert a fraction of the pro-drug Compound 66 present in solution into the drug Compound 1 within two hours” and the “conversion of pro-drug into Compound 1” value [5] was “convert a fraction of the pro-drug Compound 66 present in solution into the drug Compound 1 within two hours”.
With COC1=CC(c2cc3ccccc3[nH]2)=N/C1=C\c1[nH]c(C)cc1C [Compound 1] the “solubility in water (in words)” value ([6]; water) was “poorly soluble in water”.
With COC1=CC(c2cc3ccccc3[nH]2)=N/C1=C\c1[nH]c(C)cc1C [Compound 1 tartrate] the solubility ([6]; water (stated for Compound 66), filtrate of 0.2 μM filter by LC/MS, listed as Compound 1 Tartrate salt) was 100 µg/mL, the “effect on ATP levels in cancer cells versus normal cells” value [7] was “significantly more effective at lowering ATP levels in the cancer cell lines H1299 and C33A compared with the ATP levels in normal cell lines HMEC and MRC-5” and the “reduction in tumor growth compared to vehicle” value ([8]; 4.5 mg/kg IV once a day for five days, FIG. 3) was “statistically significant (p<0.0001) reduction in tumor growth”. The “average tumor size compared to vehicle” value ([8]; days 36 and 39, 4.5 mg/kg) was “significantly (p<0.001) smaller tumors on average”, the “change in body weight” value [3] was “no significant changes in body weight” and the “change in body weight” value ([3]; listed as Compound 1 Tartrate) was “non-significant weight loss”. For the same compound, the “precipitation of the formulation” value ([2]; listed as Compound 1 Tartrate Salt) was “tends to precipitate one hour after its preparation”.
